Source: patent US11642359B2, “Nutritional composition for improving intestinal barrier integrity, preparation of the composition and method of treatment” (priority 2018, dated 2023)

Test system: alpha-1 antitrypsin (A1AT) in the gut wash
Assay: A1AT in the gut wash by ELISA as marker of intestinal permeability / barrier disruption in rotavirus-infected suckling rats
Assay type: in vivo, rat
Conditions: compared to both the RV and REF groups (p<0.05), 3rd day of the diarrheal period (peak of diarrhea)
Method: Newborn rats were distributed into five groups of 24 animals each: the reference (REF) group, rotavirus-infected (RV) group, and 3 rotavirus-infected groups supplemented with: a) a mixture of scGOS and lcFOS (RV+GOS/FOS group); b) 2′-FL (RV+2′-FL group); and c) both scGOS/lcFOS and 2′-FL (RV+GOS/FOS+2′-FL group).
Suckling rats were orally administered once daily with the same normalized volume/body weight of all products (4.5 μL/g/day), from the second to the sixteenth day of life, corresponding to the strict lactation period. The RV+GOS/FOS group was supplemented with 0.8 g of scGOS/lcFOS/100 g of body weight. The RV+2′-FL group was supplemented with 0.2 g of 2′-FL/100 g of body weight. The RV+GOS/FOS+2′-FL group received both products at the same doses as when given separately and maintaining the volume of administration (4.5 μL/g/day). The REF and RV groups were administered with a matched volume of water. […]
The quantification of A1AT in the gut wash, as a marker of intestinal permeability, was performed with the rat SERPINA1/Alpha 1 Antitrypsin ELISA kit (LifeSpan Biosciences Inc., Seattle, Wash., USA) following the manufacturer's instructions. […]

Substance: 2′-fucosyllactose [2′-FL]
- concentration of A1AT in the gut wash: reduced
- concentration of A1AT in the gut wash (listed as 2′-fucosyllactose): significant reduction
